Experimental data from PMC6904209 (Methods in enzymology, 2017).
Read-outs that look alike come from different tables or passages of the source.

Columns and labels:
Human recombinant SCP-2 [1] = target: T1, Human recombinant SCP-2 (Homo sapiens, UniProt P22307); assay: NBDS displacement assay; format: binding; conditions: for Max % Displacement: displacement of SCP-2 (500 nM)-bound NBDS (500 nM), 24°C, 10 mM phosphate buffer pH 7.4, n=4
T1 sequence (P22307 1-143 isoform P22307-2): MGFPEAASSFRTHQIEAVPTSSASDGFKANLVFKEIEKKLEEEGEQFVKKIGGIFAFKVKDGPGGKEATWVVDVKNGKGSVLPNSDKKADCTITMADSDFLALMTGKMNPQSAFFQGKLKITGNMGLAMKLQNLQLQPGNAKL

Human recombinant SCP-2 [2] = target: T1, Human recombinant SCP-2; assay: Reverse and forward titrations of NBDS with SCP-2; format: binding; conditions: forward titration, SCP-2 500 nM, NBDS 0–1.8 μM
[3] = Ki = (Kd,NBDS × EC50)/[NBDS]total, NBDS 0.5 μM
[4] = Ki, Ki = (Kd,NBDS × EC50)/[NBDS]total, NBDS 0.5 μM

Compound | Ki (Human recombinant SCP-2 [1]; [3]) [nM] | Max % Displacement (Human recombinant SCP-2 [1]) [%] | other results
CC/C=C\C/C=C\C/C=C\C/C=C\C/C=C\C/C=C\CCC(=O)NCCO [Compound 13, docosahexaenoyl ethanolamide] | 1910 ± 40 | 73.9 ± 1.3 | –
CCCCC/C=C\C/C=C\C/C=C\C/C=C\CCCC(=O)NCCF [Compound 5, arachidonoyl-2’-fluoroethylamide] | 2780 ± 210 | 64.4 ± 2.2 | –
CCCCC/C=C\C/C=C\C/C=C\C/C=C\CCCC(N)=O [Compound 11, Arachidonoyl amide] | 1800 ± 100 | 71.1 ± 1.3 | –
CCCCC/C=C\C/C=C\C/C=C\C/C=C\CCCC(=O)NCC(=O)O [Compound 7, N-arachidonoyl glycine] | 1220 ± 30 | 82.0 ± 0.8 | –
CCCCC/C=C\C/C=C\C/C=C\C/C=C\CCCC(=O)OCCN [Compound 6, O-arachidonoylethanolamine] | 1600 ± 20 | 94.7 ± 1.6 | –
CCCCC/C=C\C/C=C\C/C=C\C/C=C\CCCC(=O)NCCc1c[nH]c2ccc(O)cc12 [Compound 8, N-arachidonoyl serotonin] | 1460 ± 20 | 84.8 ± 0.8 | –
CCCCC/C=C\C/C=C\C/C=C\C/C=C\CCCC(=O)OC(CO)CO [Compound 2, 2-arachidonoylglycerol] | – | 55.1 ± 1.0 | EC50 (Human recombinant SCP-2 [1]): 840 ± 40 nM; Ki (Human recombinant SCP-2 [1]; [4]): 370 ± 20 nM
CCCCC/C=C\C/C=C\C/C=C\C/C=C\CCCC(=O)Nc1ccc(O)cc1 [Compound 10, N-arachidonoyl-p-aminophenol] | 1410 ± 30 | 89.2 ± 0.8 | Max % Displacement (Human recombinant SCP-2 [1]; listed as AM404): 89%
CCCCC/C=C\C/C=C\C/C=C\C/C=C\CCCC(=O)NC(CO)CO [Compound 4, N-arachidonoyl serinol] | 2950 ± 120 | 69.2 ± 1.7 | fold reduction in potency compared to 2 (Human recombinant SCP-2 [1]; NBDS displacement, versus 2-AG (2)): 8 fold
CC(=O)Nc1ccc(Nc2nc(-c3ccc(Cl)c(Cl)c3)cs2)cc1 [Compound 14] | 1000 ± 100 | 96.6 ± 0.7 | –
CCCCC/C=C\C/C=C\C/C=C\C/C=C\CCCC(=O)NCCc1ccc(O)c(O)c1 [Compound 9, N-arachidonoyl dopamine] | 1120 ± 20 | 94.9 ± 0.1 | –
CCCCCCC(CCCCCCCCCCC(=O)O)N(C)c1ccc([N+](=O)[O-])c2nonc12 (stereo not shown) [NBDS, 12-N-methyl-(7-nitrobenz-2-oxa-1,3-diazo)aminostearic acid] | – | – | Bmax (Human recombinant SCP-2 [2]): 0.89 ± 0.04 binding sites per molecule of SCP-2
CCCCC/C=C\C/C=C\C/C=C\C/C=C\CCCC(=O)OCC(O)CO (stereo not shown) [Compound 3, 1-arachidonoyl glycerol] | – | 57.7 ± 0.7 | EC50 (Human recombinant SCP-2 [1]): 1870 ± 50 nM; Ki (Human recombinant SCP-2 [1]; [4]): 820 ± 20 nM
CCCCC/C=C\C/C=C\C/C=C\C/C=C\CCCC(=O)NCCO [Compound 1, N-arachidonoylethanolamine] | 680 ± 50 | 59.3 ± 1.2 | –
CCCCCCCC/C=C\CCCCCCCC(N)=O [Compound 12, Oleamide] | – | 68.3 ± 1.7 | EC50 (Human recombinant SCP-2 [1]): 13100 ± 2300 nM; Ki (Human recombinant SCP-2 [1]): 5800 ± 1000 nM
